Measurements published in ChEMBL document CHEMBL5550184, “Structure-activity relationships of middle-size cyclic peptides, KRAS inhibitors derived from an mRNA display” (Bioorg Med Chem, 2024).
Positions of bridges follow the written chain, without caps; N, C: chain ends. Non-standard residues stand in square brackets, D forms with d. Residues, ends and D or L forms follow the SMILES beside them. *: point of attachment. hPhe(3-Cl-4-CF3) = N[C@@H](CCc1ccc(C(F)(F)F)c(Cl)c1)C(=O)O; NMeGly(cPent) = CN[C@H](C(=O)O)C1CCCC1; NMeCha = CN[C@@H](CC1CCCCC1)C(=O)O; NMeD = CN[C@@H](CC(=O)O)C(=O)O; NMeL = CN[C@@H](CC(C)C)C(=O)O; Morpholide = C1CN(*)CCO1; NMeA = CN[C@@H](C)C(=O)O; Piperidide = C1CCN(*)CC1; Ac5c = NC1(C(=O)O)CCCC1; Aze = O=C(O)[C@@H]1CCN1; Sar = CNCC(=O)O

Columns and labels:
[1] = Inhibition of biotin-tagged KRAS G12D mutant (unknown origin) to recombinant His-tagged SOS1 (unknown origin) protein-protein interaction incubated for 120 mins by AlphaLISA method; parameters: species or system Homo sapiens
[2] = biological target: GTPase KRas (Homo sapiens, UniProt P01116, G12D); assay: Binding affinity to biotinylated KRAS G12D mutant (unknown origin) incubated for 120 mins by SPR analysis
Sequence of GTPase KRas (P01116 whole entry G12D): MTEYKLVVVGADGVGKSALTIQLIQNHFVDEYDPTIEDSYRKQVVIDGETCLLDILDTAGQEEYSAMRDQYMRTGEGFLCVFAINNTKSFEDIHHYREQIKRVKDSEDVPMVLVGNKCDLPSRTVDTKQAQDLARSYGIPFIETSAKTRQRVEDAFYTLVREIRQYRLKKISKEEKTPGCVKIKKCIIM

[3] = system: ASPC1; assay: Cytotoxicity against human AsPC1 cells assessed as reduction in cell viability incubated for 7 days by CellTiterGlo Luminescent Cell Viability Assay; assay type: functional, cell-based; conditions: ASPC1, 168 h
[4] = Apparent permeability in human Caco-2 cells incubated for 180 mins by LC-MS/MS method; assay type: ADME, cell-based
[5] = Half-life in BALB/c nude mouse at 1 mg/kg, iv measured upto 24 hrs by LC-MS/MS analysis; assay type: ADME, organism-based; conditions: in vivo
[6] = Half-life in BALB/c nude mouse at 20 mg/kg, po measured upto 24 hrs by LC-MS/MS analysis; assay type: ADME, organism-based; conditions: in vivo
[7] = Half-life in Wistar Hannover rat at 1 mg/kg, iv measured upto 24 hrs by LC-MS/MS analysis; assay type: ADME, organism-based; conditions: in vivo
[8] = Half-life in Wistar Hannover rat at 10 mg/kg, po measured upto 48 hrs by LC-MS/MS analysis; assay type: ADME, organism-based; conditions: in vivo
[9] = Half-life in Cynomolgus monkey at 0.167 mg/kg, iv measured upto 24 hrs by LC-MS/MS analysis; assay type: ADME, organism-based, Macaca fascicularis; conditions: in vivo
[10] = Half-life in Cynomolgus monkey at 15 mg/kg, po measured upto 48 hrs by LC-MS/MS analysis; assay type: ADME, organism-based, Macaca fascicularis; conditions: in vivo
[11] = AUCinfinity in BALB/c nude mouse at 1 mg/kg, iv measured upto 24 hrs by LC-MS/MS analysis; assay type: ADME, organism-based; conditions: in vivo
[12] = AUCinfinity in BALB/c nude mouse at 20 mg/kg, po measured upto 24 hrs by LC-MS/MS analysis; assay type: ADME, organism-based; conditions: in vivo
[13] = AUCinfinity in Wistar Hannover rat at 1 mg/kg, iv measured upto 24 hrs by LC-MS/MS analysis; assay type: ADME, organism-based; conditions: in vivo
[14] = AUCinfinity in Wistar Hannover rat at 10 mg/kg, po measured upto 48 hrs by LC-MS/MS analysis; assay type: ADME, organism-based; conditions: in vivo
[15] = AUCinfinity in Cynomolgus monkey at 0.167 mg/kg, iv measured upto 24 hrs by LC-MS/MS analysis; assay type: ADME, organism-based, Macaca fascicularis; conditions: in vivo
[16] = AUCinfinity in Cynomolgus monkey at 15 mg/kg, po measured upto 48 hrs by LC-MS/MS analysis; assay type: ADME, organism-based, Macaca fascicularis; conditions: in vivo
[17] = Clearance in BALB/c nude mouse at 1 mg/kg, iv measured upto 24 hrs by LC-MS/MS analysis; assay type: ADME, organism-based; conditions: in vivo
[18] = Clearance in Wistar Hannover rat at 1 mg/kg, iv measured upto 24 hrs by LC-MS/MS analysis; assay type: ADME, organism-based; conditions: in vivo
[19] = Clearance in Cynomolgus monkey at 0.167 mg/kg, iv measured upto 24 hrs by LC-MS/MS analysis; assay type: ADME, organism-based, Macaca fascicularis; conditions: in vivo
[20] = Volume of distribution at steady state in BALB/c nude mouse at 1 mg/kg, iv measured upto 24 hrs by LC-MS/MS analysis; assay type: ADME, organism-based; conditions: in vivo, read-out: Vdss
[21] = Volume of distribution at steady state in Wistar Hannover rat at 1 mg/kg, iv measured upto 24 hrs by LC-MS/MS analysis; assay type: ADME, organism-based; conditions: in vivo
[22] = Volume of distribution at steady state in Cynomolgus monkey at 0.167 mg/kg, iv measured upto 24 hrs by LC-MS/MS analysis; assay type: ADME, organism-based, Macaca fascicularis; conditions: in vivo, read-out: Vdss
[23] = Oral bioavailability in BALB/c nude mouse at 20 mg/kg measured upto 24 hrs by LC-MS/MS analysis; assay type: ADME, organism-based; conditions: in vivo
[24] = Oral bioavailability in Wistar Hannover rat at 10 mg/kg measured upto 48 hrs by LC-MS/MS analysis; assay type: ADME, organism-based; conditions: in vivo
[25] = Oral bioavailability in Cynomolgus monkey at 15 mg/kg measured upto 48 hrs by LC-MS/MS analysis; assay type: ADME, organism-based, Macaca fascicularis; conditions: in vivo
[26] = Metabolic stability in human liver microsomes assessed as intrinsic clearance per mg protein at 0.2 uM measured upto 30 mins by LC-MS/MS analysis; assay type: ADME, Microsome; conditions: read-out: CLH
[27] = Metabolic stability in mouse liver microsomes assessed as intrinsic clearance per mg protein at 0.2 uM measured upto 30 mins by LC-MS/MS analysis; assay type: ADME, Microsome; conditions: read-out: CLH
[28] = Metabolic stability in rat liver microsomes assessed as intrinsic clearance per mg protein at 0.2 uM measured upto 30 mins by LC-MS/MS analysis; assay type: ADME, Microsome; conditions: read-out: CLH
[29] = Metabolic stability in monkey liver microsomes assessed as intrinsic clearance per mg protein at 0.2 uM measured upto 30 mins by LC-MS/MS analysis; assay type: ADME, Macaca mulatta, Microsome; conditions: rhesus monkey, read-out: CLH
[30] = Half-life in Cynomolgus monkey at 0.168 mg/kg, iv measured upto 24 hrs by LC-MS/MS analysis; assay type: ADME, organism-based, Macaca fascicularis; conditions: in vivo
[31] = Half-life in Cynomolgus monkey at 10 mg/kg, po measured upto 48 hrs by LC-MS/MS analysis; assay type: ADME, organism-based, Macaca fascicularis; conditions: in vivo
[32] = AUCinfinity in Cynomolgus monkey at 0.168 mg/kg, iv measured upto 24 hrs by LC-MS/MS analysis; assay type: ADME, organism-based, Macaca fascicularis; conditions: in vivo
[33] = AUCinfinity in Cynomolgus monkey at 10 mg/kg, po measured upto 48 hrs by LC-MS/MS analysis; assay type: ADME, organism-based, Macaca fascicularis; conditions: in vivo
[34] = Clearance in Cynomolgus monkey at 0.168 mg/kg, iv measured upto 24 hrs by LC-MS/MS analysis; assay type: ADME, organism-based, Macaca fascicularis; conditions: in vivo
[35] = Volume of distribution at steady state in Cynomolgus monkey at 0.168 mg/kg, iv measured upto 24 hrs by LC-MS/MS analysis; assay type: ADME, organism-based, Macaca fascicularis; conditions: in vivo, read-out: Vdss
[36] = Oral bioavailability in Cynomolgus monkey at 10 mg/kg measured upto 24 hrs by LC-MS/MS analysis; assay type: ADME, organism-based, Macaca fascicularis; conditions: in vivo

CC[C@H](C)[C@@H]1NC(=O)[C@H](CC(C)C)N(C)C(=O)C[C@@H](C(=O)N2CCOCC2)N(C)C(=O)[C@H](C2CCCC2)N(C)C(=O)C2(CCCC2)NC(=O)[C@@H]2CCCN2C(=O)[C@H](CCc2ccc(C(F)(F)F)c(Cl)c2)NC(=O)CN(C)C(=O)[C@H](CC2CCCCC2)N(C)C(=O)[C@@H]2CCN2C(=O)[C@H](C)N(C)C1=O ([NMeL]I[NMeA][Aze][NMeCha][Sar][hPhe(3-Cl-4-CF3)]P[Ac5c][NMeGly(cPent)][NMeD]-Morpholide; lactam N-11)
IC50 [1]: < 2 nM | Kd [2]: 0.18 nM | IC50 [3]: 4.8 nM | Papp at 3 h [4]: 1.74 ×10⁻⁶ cm/s | half-life [5]: 5.98 h | half-life [6]: 4.16 h | half-life ([7]; Wistar Hannover): 5.57 h | half-life [8]: 3.96 h | half-life [9]: 8.14 h | half-life [10]: 7.71 h | AUC(0-inf) ([11]; BALB/c nude): 1350 ng·h/mL | AUC(0-inf) ([12]; BALB/c nude): 3880 ng·h/mL | AUC(0-inf) [13]: 2140 ng·h/mL | AUC(0-inf) [14]: 3520 ng·h/mL | AUC [15]: 673 ng·h/mL | AUC [16]: 12500 ng·h/mL | clearance [17]: 12.4 mL/min/kg | clearance [18]: 7.81 mL/min/kg | clearance [19]: 4.3 mL/min/kg | Vd [20]: 3 L/kg | Vd ([21]; Wistar Hannover, read-out: Vdss): 0.82 L/kg | Vd [22]: 0.37 L/kg | bioavailability ([23]; BALB/c nude): 14% | bioavailability [24]: 21% | F [25]: 7.2% | microsomal CLint at 0.2 µM [26]: 26 µL/min/mg | microsomal CLint at 0.2 µM [27]: 27 µL/min/mg | microsomal CLint at 0.2 µM [28]: 28 µL/min/mg | microsomal CLint at 0.2 µM [29]: 43 µL/min/mg

CC[C@H](C)[C@@H]1NC(=O)[C@H](CC(C)C)N(C)C(=O)C[C@@H](C(=O)N2CCCCC2)N(C)C(=O)[C@H](C2CCCC2)N(C)C(=O)C2(CCCC2)NC(=O)[C@@H]2CCCN2C(=O)[C@H](CCc2ccc(C(F)(F)F)c(Cl)c2)NC(=O)CN(C)C(=O)[C@H](CC2CCCCC2)N(C)C(=O)[C@@H]2CCN2C(=O)[C@H](C)N(C)C1=O ([NMeL]I[NMeA][Aze][NMeCha][Sar][hPhe(3-Cl-4-CF3)]P[Ac5c][NMeGly(cPent)][NMeD]-Piperidide; lactam N-11)
IC50 [1]: < 2 nM | Kd [2]: 0.47 nM | IC50 [3]: 18 nM | Papp at 3 h [4]: 0.61 ×10⁻⁶ cm/s | half-life [5]: 8.62 h | half-life [6]: 6.46 h | t1/2 ([7]; iv, 1 mg/kg, 24 h): 6.23 h | half-life [8]: 3.95 h | half-life [30]: 7.3 h | half-life [31]: 8.65 h | AUC ([11]; iv, 1 mg/kg, 24 h): 2860 ng·h/mL | AUC ([12]; po, 20 mg/kg, 24 h): 3270 ng·h/mL | AUC(0-inf) [13]: 7970 ng·h/mL | AUC(0-inf) [14]: 5770 ng·h/mL | AUC(0-inf) [32]: 1590 ng·h/mL | AUC(0-inf) [33]: 10700 ng·h/mL | clearance [17]: 5.9 mL/min/kg | clearance [34]: 1.81 mL/min/kg | Vd [20]: 0.85 L/kg | Vdss ([21]; iv, 1 mg/kg, 24 h): 2.6 L/kg | Vd [35]: 0.49 L/kg | F ([23]; po, 20 mg/kg, 24 h): 16% | bioavailability [24]: 5.7% | bioavailability [36]: 11% | microsomal CLint at 0.2 µM [26]: 18 µL/min/mg | microsomal CLint at 0.2 µM [27]: 24 µL/min/mg | microsomal CLint at 0.2 µM [28]: 28 µL/min/mg | microsomal CLint at 0.2 µM [29]: 32 µL/min/mg
